{"source": "patent US8759532B2", "about": "“Pyridine and pyrimidine derivatives as phosphodiesterase 10 inhibitors” (AMGEN Inc., priority 2008, dated 2014)", "molecular_target": "PDE10 (Mus musculus, UniProt Q8CA95)", "sequence (Q8CA95 whole entry, looked up)": "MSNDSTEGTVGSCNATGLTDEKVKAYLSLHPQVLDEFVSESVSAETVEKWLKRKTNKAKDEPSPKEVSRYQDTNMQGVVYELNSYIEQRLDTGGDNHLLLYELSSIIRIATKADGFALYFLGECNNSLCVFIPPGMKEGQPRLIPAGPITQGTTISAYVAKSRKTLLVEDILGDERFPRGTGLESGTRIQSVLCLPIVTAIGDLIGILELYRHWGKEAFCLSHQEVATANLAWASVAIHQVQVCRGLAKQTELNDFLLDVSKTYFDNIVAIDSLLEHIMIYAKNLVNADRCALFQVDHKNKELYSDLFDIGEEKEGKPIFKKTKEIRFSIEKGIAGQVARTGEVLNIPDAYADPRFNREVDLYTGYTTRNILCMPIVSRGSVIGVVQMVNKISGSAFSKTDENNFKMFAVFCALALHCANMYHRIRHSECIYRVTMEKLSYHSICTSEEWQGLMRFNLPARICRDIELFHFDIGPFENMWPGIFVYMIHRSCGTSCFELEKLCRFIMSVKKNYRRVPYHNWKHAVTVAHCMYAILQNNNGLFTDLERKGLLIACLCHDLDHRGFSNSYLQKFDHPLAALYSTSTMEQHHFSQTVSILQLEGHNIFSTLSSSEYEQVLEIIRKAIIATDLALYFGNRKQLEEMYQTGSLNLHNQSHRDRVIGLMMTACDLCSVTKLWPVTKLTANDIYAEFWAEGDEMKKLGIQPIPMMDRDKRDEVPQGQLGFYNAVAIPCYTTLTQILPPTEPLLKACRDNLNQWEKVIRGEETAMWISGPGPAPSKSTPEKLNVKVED", "experiment": "PDE10 enzyme inhibition, IMAP TR-FRET assay", "type": "biochemical", "procedure": "MPDE10A7 Enzyme Activity and Inhibition\nAn IMAP TR-FRET assay was used to analyze the enzyme activity (Molecular Devices Corp., Sunnyvale Calif.). 5 μL of serial diluted PDE10A (BPS Bioscience, San Diego, Calif.) or tissue homogenate was incubated with equal volumes of diluted fluorescein labeled cAMP or cGMP for 60 min in 384-well polystyrene assay plates (Corning, Corning, N.Y.) at room temperature. After incubation, the reaction was stopped by adding 60 μL of diluted binding reagents and was incubated for 3 hours to overnight at room temperature. The plates were read on an Envision (Perkin Elmer, Waltham, Mass.) for time resolved fluorescence resonance energy transfer. The data were analyzed with GraphPad Prism (La Jolla, Calif.).\nTo check the inhibition profile, 5 μL of serial diluted compounds were incubated with 5 μL of diluted PDE10 enzyme (BPS Bioscience, San Diego, Calif.) or tissue homogenate in a 384-well polystyrene assay plate (Corning, Corning, N.Y.) for 30 min at room temperature. After incubation, 10 μL of diluted fluorescein labeled cAMP or cGMP substrate were added and incubated for 60 min at room temperature. The reaction was stopped by adding 60 μL of diluted binding reagents and plates were read on an Envision (Perkin Elmer, Waltham, Mass.) for time resolved fluorescence resonance energy transfer. The data were analyzed with GraphPad Prism (La Jolla, Calif.).\nThe tabulated IC50 data represent an average IC50 data for each compound.", "note": "pIC50: −log10 of the molar value.", "data": [{"molecule": "(R)-4-(2-(4-(1H-benzo[d]imidazole-2-carbonyl)phenoxy)pyridin-3-yl)-1-methylpyrrolidin-2-one and (S)-4-(2-(4-(1H-benzo[d]imidazole-2-carbonyl)phenoxy)pyridin-3-yl)-1-methylpyrrolidin-2-one [Example 209]", "values": [{"measurement": "pIC50", "setting": "IC50 class against PDE10, printed at end of example text", "result": "> 7.60"}]}, {"molecule": "FC(F)(F)c1cc(-c2cccnc2Oc2ccc(Cc3nc4ccccc4[nH]3)cc2)ccn1", "note": "[Example 62, 2-(4-(2′-(trifluoromethyl)-3,4′-bipyriidn-2-yloxy)benzyl)-1H-benzo[d]imidazole]", "values": [{"measurement": "pIC50", "setting": "IC50 class against PDE10, Table IA", "result": "6.60 to 7.00"}]}, {"molecule": "COc1cnccc1-c1cccnc1Oc1ccc(Nc2nc3ccccc3s2)cc1", "note": "[Example 165, N-(4-(3′-methoxy-3,4′-bipyriidn-2-yloxy)phenyl)benzo[d]thiazol-2-amine]", "values": [{"measurement": "pIC50", "setting": "IC50 class against PDE10, Table IIA", "result": "> 7.60"}]}]}
